Data on 5 compounds can be found in patent US20240225053A9 (priority 2021, published 2024).

Details of experiment [1]: species or system chickens (broilers, UK Chunky). As to conditions: in vivo.
Experiment [2] relates to Clostridium perfringens. Format: in vivo, chickens (broilers). As to conditions: for Dead birds Total: 500 chickens.
The test system of experiment [3] is Clostridium perfringens SM101. The experiment is classed as cell-based. Further details: unit not given here. To be noted: bacterial cells, 500 mM, 8 hours, diluted 100 times.
For experiment [4], the system named is Clostridium perfringens CNEOP004 (netB toxin producer). The experiment is classed as cell-based. Further details: key to Agglomeration: Good: Agglomeration effect observed; Poor: No agglomeration effect observed. As to conditions: 500 mM.
For experiment [5], the system named is Clostridium perfringens ATCC10873. Format: cell-based. As to conditions: bacterial cells, 8 hours, diluted 100 times. Further details: unit not given here.
For experiment [6], the system named is Clostridium perfringens CNEOP004. Format: cell-based. As to conditions: bacterial cells, 500 mM, 8 hours, diluted 100 times. Further details: unit not given here.
In experiment [7] the test system is Lactobacillus casei ATCC393. Format: cell-based. Also on record: key to Agglomeration: Good: Those in which agglomeration observed under upright microscope; Poor: Those in which no agglomeration observed under upright microscope.
The subject of experiment [8] is Clostridium perfringens SM101 (CPE toxin producer). The experiment is classed as cell-based. Further details: key to Agglomeration: Good: Agglomeration effect observed; Poor: No agglomeration effect observed. As to conditions: 500 mM.
Experiment [9] concerns Clostridium perfringens ATCC10873. Format: cell-based. Further details: key: Good: Agglomeration effect observed; Poor: No agglomeration effect observed.
Experiment [10] has the same test system. The experiment is classed as cell-based. Also on record: key to Settling: Good: Settling effect observed; Poor: No settling effect observed. As to conditions: for Settling: 37° C., 8 hours; for Concentration required for settling / at which settling was confirmed: optical density about 2.0 at 660 nm.
The subject of experiment [11] is Salmonella enterica IAM1648. Format: cell-based. Further details: key: Good: Those in which agglomeration observed under upright microscope; Poor: Those in which no agglomeration observed under upright microscope.
For experiment [12], the system named is Escherichia coli MG1655. Format: cell-based. Also on record: key: Good: Those in which agglomeration observed under upright microscope; Poor: Those in which no agglomeration observed under upright microscope.
The test system of experiment [13] is Clostridium perfringens ATCC10873. The experiment is classed as cell-based. Further details: key: Good: Those in which agglomeration observed under upright microscope; Poor: Those in which no agglomeration observed under upright microscope. As to conditions: Table 4, 500 mM.
The test system is the same in experiment [14]. Format: cell-based. To be noted: for Shape: 8 hours; for Agglomeration (text) / Shape of the bacterial cells: Example 2 strains.
For experiment [15], the system named is Bifidobacterium animalis JCM1190. Format: cell-based. Further details: key to Agglomeration: Good: Those in which agglomeration observed under upright microscope; Poor: Those in which no agglomeration observed under upright microscope.
Experiment [16] deals with mixed bacterial cells of Clostridium perfringens ATCC10873, Salmonella enterica IAM1648 and E. coli MG1655. The experiment is classed as cell-based. As to conditions: 500 mM in combination with Arabic Gum 1%; OD660 about 2.0, 37° C.
Where [17] appears, read: Day 0-14, BMD 55 ppm, Coated-KCl 47 ppm in feed.
[18] abbreviates: Day 15-28, BMD 55 ppm, Coated-KCl 47 ppm in feed.
[19] abbreviates: Day 29-42, BMD 55 ppm, Coated-KCl 47 ppm in feed.
[20] abbreviates: Table 2-1, 500 mM, w/AG 1%, 8 hours.
[21] abbreviates: Table 2-1, 500 mM, without AG, 8 hours.

Several values for one entry are separate records, joined by “and”; a condition that tells them apart may be missing. Identical values can stand only once. Entries after “also recorded” stand apart in the source; their conditions may differ. Like-named read-outs stand apart in the source and are kept apart here.

Take bacitracin methylene disalicylate [BMD]: in experiment [1], the “BWG %: versus Control (Non treatment)” value is 106.0% and 103.9% and 103.5%; the “Weight gain as compared with Control (Non treatment), in words” value is “weight gain was improved”. Moreover, in experiment [2] (setting [17]), the “Dead birds Total” value is on record as 19 and the “Dead birds NE Caused” value is 0. For the same compound, in experiment [2] (setting [18]), the “Dead birds Total” value stood at 10 and the “Dead birds NE Caused” value was 4. Also, in experiment [2] (setting [19]), the “Dead birds Total” value is recorded as 6 and the “Dead birds NE Caused” value turned out to be 0. In experiment [2] (average, 6 weeks, BMD 55 ppm, Coated-KCl 47 ppm in feed), the “NE Caused Mortality” value amounted to 0.80. Also, the “NE Lesion Score” value in [2] (day 17, three birds per pen, 0 = none to 3 = severe, average, BMD 55 ppm, Coated-KCl 47 ppm) is reported as 0.30. The “Mortality reduced to, as compared with Challenge Control” value in [2] (text b129) is listed as 13.2%.
For `[Cl-].[Cl-].[Mg+2]` [MgCl2], the Zeta potential is recorded as −10.2 in [3] (w/AG 1%); −12.1 in experiment [3] (without AG); −12.9 in [5] (500 mM, W/AG 1%); −3.2 in experiment [5] (500 mM, without AG); −11.8 in experiment [6] (w/AG 1%); −12 in [6] (without AG). Moreover, the Shape result in [4] (w/AG 1%, 8 hours) is given as “Rod-shaped”; in [4] (without AG, 8 hours) it was “Rod-shaped”; in experiment [8] (w/AG 1%, 8 hours) it was “Rod-shaped”; in [8] (without AG, 8 hours), “Rod-shaped”; in [14] (500 mM, w/AG 1%), “Rod-shaped”; in experiment [14] (500 mM, without AG), “Rod-shaped”. In addition, the Agglomeration result in experiment [4] (Table 2-3, w/AG 1%, 8 hours) is “Good”; in experiment [4] (Table 2-3, without AG, 8 hours) it was “Poor”; in experiment [4] (Table 3-3, w/AG 1%), “Good”; in [4] (Table 3-3, without AG), “Good”; in experiment [7] it was “Poor and Good”; in experiment [8] (Table 2-2, w/AG 1%, 8 hours), “Good”. In addition, the Agglomeration result is “Poor” in experiment [8] (Table 2-2, without AG, 8 hours); “Good” in experiment [8] (Table 3-2, w/AG 1%); “Good” in experiment [8] (Table 3-2, without AG); “Good” in experiment [9] (setting [20]); “Poor” in [9] (setting [21]); “Good” in experiment [9] (Table 3-1, 500 mM, W/AG 1%). For the same compound, the Agglomeration entry in experiment [9] (Table 3-1, 500 mM, without AG) is “Poor”; in experiment [11], “Poor and Good”; in experiment [12], “Poor and Good”; in [13] (W/AG 1%), “Good”; in experiment [13] (without AG), “Poor”; in experiment [15], “Poor”. Also, the “Settling effect” value in [10] (500 mM, absence of AG) was “did not exert a settling effect”; in [10] (500 mM, in combination with AG), “exerted a settling effect”. For the same compound, the Settling entry is recorded as “Good” in experiment [10] (500 mM, w/AG 1%) and “Poor” in experiment [10] (500 mM, without AG). Also, in [10] (absence of AG), the “Concentration required for settling / at which settling was confirmed” value is “over 500 mM”. Besides, the results for the “Agglomeration (text)” value in experiment [14] (absence of AG) and in [14] (coexistence with AG) were “no agglomeration was observed” and “agglomeration of Clostridium perfringens was observed”, respectively. In addition, the “Shape of the bacterial cells” value in experiment [14] (absence of AG) is on record as “shape as bacilli remained unchanged”.
Take `[Cl-].[Na+]` [NaCl]: the “Agglomeration of the three types of enteric bad bacteria” value in experiment [16] is recorded as “can quickly agglomerate”. For the same compound, the Agglomeration entry in [9] (setting [20]) is “Good”; in [9] (setting [21]), “Poor”. Also, the Settling result was “Poor” in experiment [10] (20 mM, without AG); “Poor” in experiment [10] (100 mM, without AG); “Good” in experiment [10] (500 mM, w/AG 1%); “Good” in [10] (500 mM, without AG). For the same compound, the Shape entry is given as “Spheroidal” in [14] (500 mM, w/AG 1%) and “Spheroidal” in [14] (500 mM, without AG). The “Agglomeration (text)” value in experiment [14] (absence of AG) is “did not agglomerate”; in experiment [14] (coexistence with AG), “agglomerated in the state of cocci”. The “Shape of the bacterial cells” value in [14] (absence of AG) was “changed from bacilli to cocci”.
Consider `[Ca+2].[Cl-].[Cl-]` [CaCl2], for which the Zeta potential in experiment [3] (without AG) is −14.3; in experiment [5] (20 mM, without AG), −4.4; in experiment [5] (100 mM, without AG), −4.0; in experiment [6] (without AG), −12.3. The Shape result in experiment [4] (without AG, 8 hours) is reported as “Rod-shaped”; in experiment [8] (without AG, 8 hours) it was “Rod-shaped”; in [14] (20 mM, without AG), “Rod-shaped”; in experiment [14] (100 mM, without AG) it was “Rod-shaped”. For the same compound, the Agglomeration entry is “Good” in [4] (Table 2-3, without AG, 8 hours); “Good” in [4] (Table 3-3, without AG); “Poor” in [7]; “Good” in experiment [8] (Table 2-2, without AG, 8 hours); “Good” in experiment [8] (Table 3-2, without AG); “Good” in [9] (Table 2-1, 20 mM, without AG, 8 hours). Besides, the Agglomeration entry in [9] (Table 2-1, 100 mM, without AG, 8 hours) is “Good”; in experiment [9] (Table 3-1, 20 mM, without AG), “Good”; in experiment [9] (Table 3-1, 100 mM, without AG) it was “Good”; in experiment [11], “Poor”; in experiment [12] it was “Poor”; in experiment [13] (without AG), “Good”. Moreover, the Agglomeration result in [15] is listed as “Poor”. For the same compound, the Settling result in experiment [10] (20 mM, without AG) was “Poor”; in experiment [10] (100 mM, without AG), “Poor”. In addition, in experiment [14] (absence of AG), the “Concentration at which bacterial cells agglomerated” value was at least 20 mM. For the same compound, the “Agglomeration (text)” value in experiment [14] (absence of AG) is on record as “agglomerated in the state of bacilli”.
As for `[Cl][Fe][Cl]` [FeCl2], the Zeta potential in experiment [3] (without AG) is 4.1; in experiment [5] (10 mM, without AG), 0.8; in experiment [5] (50 mM, without AG) it was 20.7; in [6] (without AG) it was 21.5. In addition, the Shape entry is “Rod-shaped” in [4] (without AG, 8 hours); “Rod-shaped” in experiment [8] (without AG, 8 hours); “Rod-shaped” in experiment [14] (10 mM, without AG); “Rod-shaped” in experiment [14] (50 mM, without AG). The Agglomeration entry in [4] (Table 2-3, without AG, 8 hours) was “Good”; in experiment [4] (Table 3-3, without AG), “Good”; in [7] it was “Good”; in experiment [8] (Table 2-2, without AG, 8 hours), “Good”; in [8] (Table 3-2, without AG), “Good”; in experiment [9] (Table 2-1, 10 mM, without AG, 8 hours), “Good”. In addition, the Agglomeration entry in [9] (Table 2-1, 50 mM, without AG, 8 hours) was “Good”; in experiment [9] (Table 3-1, 10 mM, without AG), “Good”; in [9] (Table 3-1, 50 mM, without AG), “Good”; in experiment [11], “Poor”; in experiment [12], “Poor”; in experiment [13] (without AG), “Good”. Moreover, in experiment [15], the Agglomeration result was “Good”. The “Agglomeration effect” value in experiment [7] and in experiment [15] was “showed an agglomeration effect” throughout. Also, the Settling entry was “Good” in [10] (10 mM, without AG) and “Good” in [10] (50 mM, without AG). Further, the “Concentration required for settling / at which settling was confirmed” value in [10] (absence of AG) is on record as at least 10 mM. In addition, the “Concentration at which bacterial cells agglomerated” value in experiment [14] (absence of AG) is reported as at least 10 mM. Moreover, in experiment [14] (absence of AG), the “Agglomeration (text)” value is given as “showed an agglomeration effect; also recorded: agglomerated in the state of bacilli”.
